Data taken from ChEMBL document CHEMBL3044899, “Effect of chloro and fluoro groups on the antimicrobial activity of 2,5-disubstituted 4-thiazolidinones: a comparative study” (2012).
Activity calls are given as the source filed them. The rule behind the calls is not given here.

Experiments:
[1] = system: Staphylococcus aureus; experiment: Antibacterial activity against Staphylococcus aureus MTCC 96 by cup-plate method; assay type: functional, organism-based
[2] = system: Pseudomonas aeruginosa; experiment: Antibacterial activity against Pseudomonas aeruginosa MTCC 2453 at 100 ug/ml by cup-plate method; assay type: functional; conditions: read-out: DIZ
[3] = system: Staphylococcus aureus; experiment: Antibacterial activity against Staphylococcus aureus MTCC 96 at 200 ug/ml by cup-plate method; assay type: functional; conditions: read-out: DIZ
[4] = system: Pseudomonas aeruginosa; experiment: Antibacterial activity against Pseudomonas aeruginosa MTCC 2453 at 200 ug/ml by cup-plate method; assay type: functional; conditions: read-out: DIZ
[5] = system: Bacillus subtilis; experiment: Antibacterial activity against Bacillus subtilis MTCC 121 at 200 ug/ml by cup plate method; assay type: functional; conditions: read-out: DIZ
[6] = system: Staphylococcus aureus; experiment: Antibacterial activity against Staphylococcus aureus MTCC 96 at 50 ug/ml by cup-plate method; assay type: functional; conditions: read-out: DIZ
[7] = system: Escherichia coli; experiment: Antibacterial activity against Escherichia coli MTCC 739 by cup-plate method; assay type: functional, organism-based
[8] = system: Escherichia coli; experiment: Antibacterial activity against Escherichia coli MTCC 739 at 100 ug/ml by cup-plate method; assay type: functional; conditions: read-out: DIZ
[9] = system: Bacillus subtilis; experiment: Antibacterial activity against Bacillus subtilis MTCC 121 at 50 ug/ml by cup plate method; assay type: functional; conditions: read-out: DIZ
[10] = system: Pseudomonas aeruginosa; experiment: Antibacterial activity against Pseudomonas aeruginosa MTCC 2453 at 300 ug/ml by cup-plate method; assay type: functional; conditions: read-out: DIZ
[11] = system: Candida albicans; experiment: Antifungal activity against Candida albicans MTCC 227 at 50 to 300 ug/ml by cup-plate method; assay type: functional, organism-based
[12] = system: Escherichia coli; experiment: Antibacterial activity against Escherichia coli MTCC 739 at 50 ug/ml by cup-plate method; assay type: functional; conditions: read-out: DIZ
[13] = system: Bacillus subtilis; experiment: Antibacterial activity against Bacillus subtilis MTCC 121 at 300 ug/ml by cup plate method; assay type: functional; conditions: read-out: DIZ
[14] = system: Pseudomonas aeruginosa; experiment: Antibacterial activity against Pseudomonas aeruginosa MTCC 2453 by cup-plate method; assay type: functional, organism-based
[15] = system: Bacillus subtilis; experiment: Antibacterial activity against Bacillus subtilis MTCC 121 at 100 ug/ml by cup plate method; assay type: functional; conditions: read-out: DIZ
[16] = system: Staphylococcus aureus; experiment: Antibacterial activity against Staphylococcus aureus MTCC 96 at 300 ug/ml by cup-plate method; assay type: functional; conditions: read-out: DIZ
[17] = system: Staphylococcus aureus; experiment: Antibacterial activity against Staphylococcus aureus MTCC 96 at 100 ug/ml by cup-plate method; assay type: functional; conditions: read-out: DIZ
[18] = system: Pseudomonas aeruginosa; experiment: Antibacterial activity against Pseudomonas aeruginosa MTCC 2453 at 50 ug/ml by cup-plate method; assay type: functional; conditions: read-out: DIZ
[19] = system: Bacillus subtilis; experiment: Antibacterial activity against Bacillus subtilis MTCC 121 by cup plate method; assay type: functional, organism-based
[20] = system: Escherichia coli; experiment: Antibacterial activity against Escherichia coli MTCC 739 at 300 ug/ml by cup-plate method; assay type: functional; conditions: read-out: DIZ
[21] = system: Escherichia coli; experiment: Antibacterial activity against Escherichia coli MTCC 739 at 200 ug/ml by cup-plate method; assay type: functional; conditions: read-out: DIZ

Compound: O=C1N/C(=N\c2ccc(F)c(Cl)c2)S/C1=C\c1ccc(O)cc1
- Activity [1]: Dose-dependent effect
- zone of inhibition at 100 µg/mL [2]: 9 mm
- zone of inhibition at 200 µg/mL [3]: 10 mm
- zone of inhibition at 200 µg/mL [4]: 10 mm
- zone of inhibition at 200 µg/mL [5]: 10 mm
- zone of inhibition at 50 µg/mL [6]: 8 mm
- Activity [7]: Dose-dependent effect
- zone of inhibition at 100 µg/mL [8]: 9 mm
- zone of inhibition at 50 µg/mL [9]: 9 mm
- zone of inhibition at 300 µg/mL [10]: 10 mm
- Activity [11]: inactive
- zone of inhibition at 50 µg/mL [12]: 8 mm
- zone of inhibition at 300 µg/mL [13]: 11 mm
- Activity [14]: Dose-dependent effect
- zone of inhibition at 100 µg/mL [15]: 10 mm
- zone of inhibition at 300 µg/mL [16]: 11 mm
- zone of inhibition at 100 µg/mL [17]: 10 mm
- zone of inhibition at 50 µg/mL [18]: 8 mm
- Activity [19]: Dose-dependent effect
- zone of inhibition at 300 µg/mL [20]: 10 mm
- zone of inhibition at 200 µg/mL [21]: 10 mm
